Assay results: publication PMC7617869, “Molecular glues that inhibit deubiquitylase activity and inflammatory signaling” (Nature Structural & Molecular Biology, 2025)
“And” between values parts separate entries of the source, which are not always exact repeats. Equal entries are not always repeated.

How the values were obtained:
THP-1 cells = assay: THP-1 live cell percentage; type: cell-based; details: THP-1, hIFNα2 25 ng/mL, 4 μM compound, 16 h
Procedure: THP-1 in vitro experiments
THP-1-DualTM cells (InvivoGen), derived from a human monocytic cell line, isolated from a patient with acute monocytic leukaemia, were cultured as per manufacturer’s guidance. Cells were seeded at 1x10^6 cells/mL in RPMI1640 media containing 10% fetal bovine serum (FBS), 1% penicillin-streptomycin (PS) (Gibco Laboratories) with DMSO (0.1%) (control) or in media containing JMS-175- […]
ng/mL) (Merck Life Science), ODN 2216 (1 µM) (Miltenyi Biotec), or Poly:IC (1 µg/mL) (InvivoGen).
Tofacitinib (Cambridge Biosciences) at 0.4 µM was used for comparison against a known JAK inhibitor.
Cells were centrifuged at 300 g for 5 minutes. Supernatant was removed and subjected to simultaneous study of the NF -κB pathway, by monitoring the activity of secreted alkaline phosphatase reporter (SEAP), and the IRF pathway, by assessing the activity o f a secreted Lucia luciferase using QUANTI - Blue ™ Solution and QUANTI -Luc™ 4 Lucia/Gaussia (InvivoGen), respectively, as per manufacturer’s instructions. Pelleted cells were used for FACS analysis using IFNα/β R1 APC-conjugated antibody or isotype control (Biotechne, FAB245A and IC002A), or unstained staining procedure with and without Zombie GreenTM (Biolegend). Samples were analysed using CytoFlex LX (Beckman) (50,000 live cells per condition). Median fluorescence intensity for APC channel gated on single cell live cells was analysed and compared as a percentage to control (no stimulation condition). […]

[1] = test system: CXCL10 secretion in SSc PBMCs; assay: SSc PBMC CXCL10 ELISA, unstimulated; type: cell-based, human
Procedure: (§1) PBMCs in vitro experiments
(§2) Peripheral blood mononuclear cells (PBMCs) from healthy and SSc donors were separated using density gradient method (Leucosep™, Greiner Bio-One International) from EDTA anticoagulated peripheral blood; isolated cells were washed twice by PBS. PBMCs were then incubated in RPMI1640 […]
For healthy PBMCs, cells were stimulated with 20 ng/mL of IFN (+/- compounds or DMSO). For SSc PBMCs, cells were in basal conditions with no additional IFN stimulation. Cells were centrifuged at 300 g for 10 minutes. Supernatant was removed and subjected to R&D Systems DY266 Human CXCL10/IP-10 DuoSet ELISA (Biotechne) in duplicates, according to manufacturer’s guidance. Concentration of CXCL10 was determined according to a 4-parameter

[2] = test system: ISG expression in SSc PBMCs; assay: SSc PBMC type I IFN signaling gene expression array, unstimulated; type: cell-based, human; details: unstimulated PBMCs from SSc patients; one value per patient (P1-P9)
Procedure: as §1, §2
(§3) For healthy PBMCs, cells were stimulated with 20 ng/mL of IFN (+/- compounds or DMSO). For SSc PBMCs, cells were in basal conditions with no additional IFN stimulation. Cells were centrifuged at 300 g for 10 minutes. […]
(§4) RNA was extracted from cell pellets using TRIzol™ (ThermoFisher
(§5) Scientific, Waltham, MA) and processed using Quick-RNA Miniprep Kit (Zymo Research) as per the manufacturer’s instruction.
(§6) For Type I IFN signalling analysis, the human IFN I RT2 Profiler PCR Array (Qiagen, PAMM-016ZE) was performed on available RNA from healthy (n=3) and SSc (n=9) donors. RNA was converted to cDNA using RT2 First Strand Kit (Qiagen). Next, the cDNA was mixed with RT2 SYBR Green Mastermix (Qiagen, Venlo). Successful PCR performance was confirmed by assay tests for genomic DNA contamination, RNA sample quality, as well as single melt curve determination and <35 Ct for each gene, leading to validated gene expression of 67 genes. Relative expression for each gene was determined, firstly by ∆CT calculated using the geometric mean of 4 housekeeping genes (ACTB, GAPDH, HPRT1, RPLP0), followed by 2^(-∆CT), and expressed as fold change to control, according to manufacturer’s guidance. IFN2α-induced ISGs in healthy donors were determined using a Student’s t-test (two-tail distribution and equal variances) on the triplicate fold change in 2^(-ΔCT) values between […]
(§7) donors). Heatmaps were generated using the “pheatmap” function in R (v4.0.2) and RStudio (v1.3.1093) applying row scaling to standardise the expression data across samples (R core team 2020.
(§8) R Foundation for Statistical Computing). The IFN2α inducible genes determined in healthy donors […]
(§9) 171-C. To account for Type I IFN signalling heterogeneity across samples, the mean 2^(-∆CT) for each […]
(§10) relative gene expression, illustrated as a fold change and visualised in log2. The Type I IFN signalling array data for the patient samples is included in Source Data Figure 6, Extended Data Fig. 9.

[3] = test system: composite ISG score in SSc PBMCs; assay: SSc PBMC composite ISG score (CXCL10, IFIT1, ISG15, MX1); type: cell-based, human; details: sheet Ext. 9e; SSc PBMCs; 20 values per compound (one per patient sample)
Procedure: as §1, §2, §3, §4, §5, §6, §7, §8, §9, §10

Compound: Cn1cc(NC(=O)c2c(Cl)cccc2Cl)c(C(=O)NC2CCN(C(=O)c3c(Cl)cccc3Cl)CC2)n1 [AP-5-145]
- percentage of live cells (THP-1 cells): 98.52%
- CXCL10, SSc donor PBMCs (Fig. 6d) ([1]; SSc donor ID 68): 80
- CXCL10, SSc donor PBMCs (Fig. 6d) ([1]; SSc donor ID 78): 67.741
- CXCL10, SSc donor PBMCs (Fig. 6d) ([1]; SSc donor ID 79): 66.2158
- CXCL10, SSc donor PBMCs (Fig. 6d) ([1]; SSc donor ID 142): 86.6322
- CXCL10, SSc donor PBMCs (Fig. 6d) ([1]; SSc donor ID 205): 91.7468
- CXCL10, SSc donor PBMCs (Fig. 6d) ([1]; SSc donor ID 219): 90.6622
- CXCL10, SSc donor PBMCs (Fig. 6d) ([1]; SSc donor ID 244): 57.7808
- ADAR, Type I IFN signalling array raw data [2]: 3.585 and 4.485 and 4.334 and 4.353 and 5.313 and 4.699 and 4.415 and 5.111 and 3.559
- BST2, Type I IFN signalling array raw data [2]: 3.184 and 2.458 and 3.302 and 3.672 and 2.309 and 1.595 and 4.59 and 3.685 and 1.654
- CASP1, Type I IFN signalling array raw data [2]: 1.628 and 0.9815 and 2.95 and 3.664 and 1.948 and 2.361 and 2.033 and 2.206 and 1.183
- CD86, Type I IFN signalling array raw data [2]: 4.785 and 2.783 and 4.5852 and 3.1897 and 4.314 and 3.552 and 4.0343 and 4.013 and 3.55
- CXCL10, Type I IFN signalling array raw data [2]: 2.8643 and 6.708 and 5.453 and 2.734 and 4.396 and 4.529 and 5.68 and 6.078 and 3.688
- DDX58, Type I IFN signalling array raw data [2]: 2.4595 and 2.543 and 3.026 and 3.209 and 2.763 and 1.787 and 3.543 and 4.173 and 1.175
- GBP1, Type I IFN signalling array raw data [2]: 0.1474 and 2.145 and 2.622 and 1.459 and 0.8545 and 1.754 and 2.939 and 2.1766 and -0.4621
- IFI6, Type I IFN signalling array raw data [2]: 2.465 and 2.227 and 2.936 and 2.73 and 1.772 and 0.8033 and 3.207 and 3.6638 and 1.0872
- IFI16, Type I IFN signalling array raw data [2]: 1.83 and 1.644 and 2.049 and 2.362 and 1.331 and 1.292 and 2.492 and 2.951 and 1.1658
- IFIH1, Type I IFN signalling array raw data [2]: 3.174 and 3.642 and 3.693 and 3.986 and 3.429 and 3.042 and 4.0109 and 5.193 and 2.582
- IFIT1, Type I IFN signalling array raw data [2]: 4.24 and 3.643 and 3.989 and 4.293 and 2.488 and 1.397 and 4.575 and 7.138 and 1.6699
- IFIT2, Type I IFN signalling array raw data [2]: 3.353 and 3.202 and 2.7801 and 3.719 and 2.327 and 0.07597 and 4.728 and 5.592 and 0.851
- IFIT3, Type I IFN signalling array raw data [2]: 2.463 and 3.281 and 3.064 and 3.575 and 3.043 and 1.248 and 5.135 and 5.476 and 1.263
- IFITM1, Type I IFN signalling array raw data [2]: -0.2471 and 0.1243 and 0.2716 and 1.178 and 0.8183 and 0.3168 and 1.196 and 1.705 and -0.8285
- IFITM2, Type I IFN signalling array raw data [2]: 3.999 and 3.471 and 4.22 and 5.1798 and 5.262 and 5.108 and 4.673 and 5.09 and 4.191
- IFITM3, Type I IFN signalling array raw data [2]: 3.006 and 2.32 and 3.244 and 3.786 and 1.434 and -0.1662 and 3.42 and 4.49 and -0.2026
- IRF1, Type I IFN signalling array raw data [2]: 1.06 and 1.224 and 2.232 and 2.144 and 1.15 and 2.067 and 2.585 and 1.973 and 0.5242
- IRF7, Type I IFN signalling array raw data [2]: 5.407 and 5.206 and 4.576 and 6.178 and 4.455 and 3.933 and 5.89 and 5.935 and 9.933
- IRF9, Type I IFN signalling array raw data [2]: 2.066 and 2.065 and 2.241 and 2.2692 and 1.294 and 1.106 and 2.973 and 2.809 and 0.8366
- ISG15, Type I IFN signalling array raw data [2]: 2.596 and 6.312 and 3.3545 and 3.693 and 0.9621 and 0.3667 and 4.1244 and 6.015 and 0.1079
- ISG20, Type I IFN signalling array raw data [2]: 2.432 and 2.479 and 2.547 and 3.375 and 2.843 and 3.174 and 3.393 and 3.464 and 1.322
- MX1, Type I IFN signalling array raw data [2]: 4.424 and 4.226 and 3.58 and 4.634 and 2.28 and 2.399 and 4.395 and 5.558 and 2.679
- MX2, Type I IFN signalling array raw data [2]: 4.173 and 3.658 and 2.952 and 4.357 and 2.358 and 2.074 and 3.745 and 4.851 and 2.355
- MYD88, Type I IFN signalling array raw data [2]: 3.563 and 2.295 and 2.992 and 3.3169 and 2.321 and 1.993 and 3.136 and 2.869 and 2.18
- NMI, Type I IFN signalling array raw data [2]: 1.73 and 1.406 and 2.205 and 1.958 and 1.878 and 1.724 and 2.633 and 2.762 and 1.099
- OAS1, Type I IFN signalling array raw data [2]: 3.537 and 3.8519 and 3.958 and 4.26 and 2.489 and 2.393 and 5.01 and 4.925 and 2.848
- OAS2, Type I IFN signalling array raw data [2]: 3.256 and 3.665 and 3.696 and 4.93 and 3.216 and 2.622 and 4.725 and 4.971 and 2.257
- PML, Type I IFN signalling array raw data [2]: 3.769 and 4.451 and 4.457 and 4.682 and 3.169 and 3.581 and 5.048 and 5.21 and 2.632
- SOCS1, Type I IFN signalling array raw data [2]: 4.276 and 3.145 and 2.943 and 3.915 and 3.6717 and 2.288 and 4.381 and 4.149 and 1.789
- STAT1, Type I IFN signalling array raw data [2]: -1.171 and 0.5507 and 0.704 and -0.4526 and -0.2783 and 1.689 and 0.5533 and 0.2423 and -1.283
- STAT2, Type I IFN signalling array raw data [2]: 3.543 and 4.373 and 3.597 and 3.344 and 3.627 and 3.236 and 4.148 and 3.986 and 2.129
- STAT3, Type I IFN signalling array raw data [2]: 1.898 and 1.636 and 1.633 and 5.446 and 2.412 and 1.5196 and 2.3996 and 2.61 and 1.33
- TAP1, Type I IFN signalling array raw data [2]: 1.436 and 1.649 and 2.5757 and 2.2546 and 2.075 and 1.836 and 3.734 and 2.309 and 0.9557
- TNFSF10, Type I IFN signalling array raw data [2]: 2.318 and 2.989 and 3.028 and 3.374 and 2.092 and 2.434 and 3.558 and 3.768 and 2.177
- CXCL10 [3]: 1.751 and 0.25 and 0.7382 and 0.8655 and 0.7967 and 0.4021 and 0.5617 and 1.22 and 0.6479 and 2.776 and 1.1866 and 0.5017 and 0.551 and 0.4363 and 0.9229 and 0.6553 and 1.25 and 0.7409 and 0.339 and 0.3688
- IFIT1 [3]: 0.6337 and 0.5474 and 0.8263 and 0.6524 and 0.6203 and 0.9706 and 0.5382 and 1.166 and 0.8191 and 0.9287 and 1.423 and 0.5364 and 0.8639 and 0.4363 and 0.9229 and 1.253 and 1.322 and 1.329 and 0.8934 and 0.7188
- ISG15 [3]: 1.377 and 0.6237 and 1.266 and 0.7354 and 0.9639 and 0.9802 and 0.5935 and 1.766 and 0.659 and 0.6409 and 0.6943 and 0.6974 and 1.099 and 0.4464 and 1.007 and 1.459 and 1.622 and 0.4684 and 1.547 and 1.209
- MX1 [3]: 0.9424 and 0.9381 and 0.6518 and 0.8276 and 0.6072 and 1.137 and 0.7908 and 1.689 and 0.9753 and 0.9313 and 1.364 and 0.7737 and 0.8832 and 0.4676 and 0.7628 and 0.9541 and 1.254 and 0.9134 and 1.016 and 0.8618
